Molecular target: SARS‐CoV‐2 nsp10–nsp16 complex (Severe acute respiratory syndrome coronavirus 2, UniProt P0DTD1)
Experiment: nsp10–nsp16 radiometric MTase assay, IC50 determination
Type: biochemical

Nc1ncnc2c1ncn2[C@@H]1O[C@H](CSCC[C@H](N)C(=O)O)[C@@H](O)[C@H]1O [SAH, S‐adenosylhomocysteine]
IC50: 2200 ± 200 nM
Hill slope (radiometric assay, mean ± SD, N = 3): 0.6 ± 0.1
